Measurements from US10815210B2, “Benzocyclobutane derivatives useful as dual SGLT1 / SGLT2 modulators” (Janssen Pharmaceutica NV, priority 2016, dated 2020).

What was measured:
human SGLT1 = biological target: T1, human SGLT1 (Homo sapiens, UniProt P13866); assay: SGLT1 assay: Na-dependent 14C-AMG uptake in CHO-K1 cells stably expressing human SGLT1; type: cell-based; settings: 500 μM AMG, 2 hours at 37° C.
T1 construct: expressed in transfected cells; host or cells: CHO-K1
T1 sequence (P13866 1-664): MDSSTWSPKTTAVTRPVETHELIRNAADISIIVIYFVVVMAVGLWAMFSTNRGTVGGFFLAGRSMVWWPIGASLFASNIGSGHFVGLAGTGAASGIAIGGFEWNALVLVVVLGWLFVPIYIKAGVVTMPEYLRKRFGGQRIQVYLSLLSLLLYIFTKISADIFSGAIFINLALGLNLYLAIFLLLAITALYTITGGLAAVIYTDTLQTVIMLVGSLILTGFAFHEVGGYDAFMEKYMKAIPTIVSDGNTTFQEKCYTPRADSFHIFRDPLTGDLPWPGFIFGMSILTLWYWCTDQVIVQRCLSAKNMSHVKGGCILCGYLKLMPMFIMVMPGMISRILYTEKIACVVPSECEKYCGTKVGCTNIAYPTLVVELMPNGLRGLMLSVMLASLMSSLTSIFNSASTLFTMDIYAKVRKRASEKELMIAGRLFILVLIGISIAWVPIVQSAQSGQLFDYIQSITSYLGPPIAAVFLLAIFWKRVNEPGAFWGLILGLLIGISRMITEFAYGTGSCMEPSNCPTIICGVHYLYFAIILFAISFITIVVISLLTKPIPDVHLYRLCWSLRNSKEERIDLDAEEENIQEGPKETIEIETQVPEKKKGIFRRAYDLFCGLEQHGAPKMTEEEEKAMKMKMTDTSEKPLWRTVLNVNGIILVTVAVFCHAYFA
Outline: (§1)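 CHO-K1 cells stably expressing human SGLT1 or SGLT2, pretreated 24 h with 10 mM Na-butyrate, were exposed 10 min to compound (0.001-10 μM) in Na-containing HEPES/Tris buffer pH 7.4. Uptake of ^14C-AMG (500 μM final) ran 2 h at 37° C, then Na-dependent uptake was counted by scintillation.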

human SGLT2 = biological target: T2, human SGLT2 (Homo sapiens, UniProt P31639); assay: SGLT2 assay: Na-dependent 14C-AMG uptake in CHO-K1 cells stably expressing human SGLT2; type: cell-based; settings: 500 μM AMG, 2 hours at 37° C.
T2 construct: expressed in transfected cells; host or cells: CHO-K1
T2 sequence (P31639 1-672): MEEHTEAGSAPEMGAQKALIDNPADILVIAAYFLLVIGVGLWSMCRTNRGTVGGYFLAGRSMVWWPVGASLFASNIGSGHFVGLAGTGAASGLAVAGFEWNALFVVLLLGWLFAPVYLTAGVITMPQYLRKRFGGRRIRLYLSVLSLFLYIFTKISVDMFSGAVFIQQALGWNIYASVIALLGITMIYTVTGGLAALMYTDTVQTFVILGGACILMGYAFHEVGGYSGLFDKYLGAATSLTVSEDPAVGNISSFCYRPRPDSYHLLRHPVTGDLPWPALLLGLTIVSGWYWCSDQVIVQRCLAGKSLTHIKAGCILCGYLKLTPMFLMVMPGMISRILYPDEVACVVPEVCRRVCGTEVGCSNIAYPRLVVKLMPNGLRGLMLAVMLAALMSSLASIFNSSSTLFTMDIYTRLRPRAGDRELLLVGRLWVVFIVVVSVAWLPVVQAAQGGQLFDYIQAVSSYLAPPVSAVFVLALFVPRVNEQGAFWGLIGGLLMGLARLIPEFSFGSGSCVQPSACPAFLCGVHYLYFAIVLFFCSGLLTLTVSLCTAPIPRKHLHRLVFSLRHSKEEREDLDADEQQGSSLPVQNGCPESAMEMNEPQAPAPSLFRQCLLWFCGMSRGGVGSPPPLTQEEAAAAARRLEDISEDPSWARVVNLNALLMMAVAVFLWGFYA
Outline: as §1

IC50 (human SGLT1): 18 nM
IC50 (human SGLT2): 1 nM
Compound: CCOc1cc(Cl)c(Cc2ccc3c(c2)CC3)cc1[C@@H]1O[C@H](CO)[C@@H](F)[C@H](O)[C@H]1O [Compound 132]
